Reference: PMC12717519, “Chemical clues to infection: A pilot study on the differential secondary metabolite production during the life cycle of selected Cordyceps species” (IMA Fungus, 2025)
In brackets after ≈: the same amount, converted by molar mass. Like-named read-outs stand apart in the source and are kept apart here.

Tests used:
[1] = tested on: Human lung carcinoma (A549); type: cell-based
Protocol: (§1) Serial dilution assays were performed in 96-well microtiter plates to determine the minimum inhibitory concentrations (MICs) against a panel of yeasts, filamentous fungi, and bacteria, as well as the half-maximal inhibitory concentrations (IC50) against human cell lines, following our previously described protocol ([Charria-Girón et al. 2023]).

[2] = tested on: Human epidermoid carcinoma (A431); type: cell-based
Protocol: as §1

[3] = tested on: Human prostate carcinoma (PC-3); type: cell-based
Protocol: as §1

macrophages = details: ref Namatame et al. 2004; cited from earlier work
Excerpt: (§2) Our study highlights how amino acid substitutions modulate beauveriolides’ bioactivities. […] Thus, the amino acid at this position is crucial for bioactivity. The lack of antimicrobial activity in some beauveriolides, such as those containing HDA, further supports the hypothesis that these molecules may have different functions, such as facilitating insect pathogenicity rather than broad antimicrobial antagonism.

[4] = ref Namatame et al. 2004; cited from earlier work
Excerpt: as §2

[5] = tested on: Bacillus subtilis (DSM 10); test: microbe, parasite or virus in culture; type: cell-based
Protocol: as §1

[6] = tested on: Staphylococcus aureus (DSM 346); test: microbe, parasite or virus in culture; type: cell-based
Protocol: as §1

[7] = tested on: Candida albicans (DSM 1665); test: MIC serial dilution assay; type: cell-based; details: serial dilution in 96-well microtiter plates; tested up to 67 µg/mL
Protocol: as §1

[8] = tested on: Mucor hiemalis (DSM 2656); test: MIC serial dilution assay; type: cell-based; details: serial dilution in 96-well microtiter plates; tested up to 67 µg/mL
Protocol: as §1

[9] = tested on: Pseudomonas aeruginosa (PA14); test: MIC serial dilution assay; type: cell-based; details: serial dilution in 96-well microtiter plates; tested up to 67 µg/mL
Protocol: as §1

[10] = tested on: Mycobacterium smegmatis (ATCC 700084); test: MIC serial dilution assay; type: cell-based; details: serial dilution in 96-well microtiter plates; tested up to 67 µg/mL
Protocol: as §1

[11] = tested on: Escherichia coli (DSM 1116); test: MIC serial dilution assay; type: cell-based; details: serial dilution in 96-well microtiter plates; tested up to 67 µg/mL
Protocol: as §1

[12] = tested on: Human endocervival adenocarcinoma (KB3.1); test: cells; type: cell-based
Protocol: as §1

[13] = tested on: Human ovarian cancer (SKOV-3); test: Cytotoxicity assay; type: cell-based; details: serial dilution in 96-well plates
Protocol: as §1

[14] = tested on: Human breast adenocarcinoma (MCF-7); test: Cytotoxicity assay; type: cell-based; details: serial dilution in 96-well plates
Protocol: as §1

[15] = tested on: beet armyworm (Spodoptera exigua, Lepidoptera); test: Virulence of purified compounds against beet armyworm larvae (injection); type: in vivo; details: larvae injected with 0.5 µL of DMSO dilutions (40 to 0.625 µg/mL), n = 6 per concentration, 25 °C, concentration of the value not stated
Protocol: To evaluate the virulence of purified compounds against beet armyworm larvae, beauveriolides I (4) and M (5) were selected based on availability, and cytochalasin D served as a positive control. […] Larvae were injected with 0.5 µL of each dilution (n = 6 per concentration), maintained at 25 °C for one week, and monitored daily to assess mortality. Saline ([…]) and DMSO served as negative controls.
For proof of concept, beauveriolides I (4) and M (5) were selected based on availability and tested following the spore-suspension protocol but considering only total mortality, with cytochalasin D, a mycotoxin commonly produced by Metarhizium spp., used as a positive control ([Kobmoo et al. 2024]).

[16] = Solubility in deuterated solvents (for NMR); type: physicochemical; details: observation during NMR sample preparation; deuterated solvents / deuterated DMSO
Mouse fibroblast (L929) = test: Cytotoxicity assay; type: cell-based; details: serial dilution in 96-well plates
[17] = tested on: Acinetobacter baumannii (DSM 30008); test: MIC serial dilution assay; type: cell-based; details: serial dilution in 96-well microtiter plates; tested up to 67 µg/mL
Protocol: as §1

[18] = tested on: Chromobacterium violaceum (DSM 30191); test: MIC serial dilution assay; type: cell-based; details: serial dilution in 96-well microtiter plates; tested up to 67 µg/mL
Protocol: as §1

[19] = tested on: Rhodotorula glutinis (DSM 10134); test: MIC serial dilution assay; type: cell-based; details: serial dilution in 96-well microtiter plates; tested up to 67 µg/mL
Protocol: as §1

[20] = tested on: Schizosaccharomyces pombe (DSM 70572); test: MIC serial dilution assay; type: cell-based; details: serial dilution in 96-well microtiter plates; tested up to 67 µg/mL
Protocol: as §1

[21] = tested on: Wickerhamomyces anomalus (DSM 6766); test: MIC serial dilution assay; type: cell-based; details: serial dilution in 96-well microtiter plates; tested up to 67 µg/mL
Protocol: as §1

[22] = serial dilution in 96-well microtiter plates, tested up to 67 µg/mL
[23] = KB3.1, serial dilution in 96-well plates, read-out: IC50

CCCC[C@H](C)[C@@H]1CC(=O)N[C@@H](Cc2ccccc2)C(=O)N[C@@H](C)C(=O)N[C@H](CC(C)C)C(=O)O1 [Compound 4, beauveriolide I]
IC50 [1]: 900 nM | IC50 [2]: 1200 nM | IC50 [3]: 3.5 µM | antiatherogenic effects in macrophages (macrophages): potent antiatherogenic effects | adverse outcomes in animal studies [4]: without adverse outcomes | MIC ([5]; DSM 10): 66.6 µg/mL (≈ 137 µM) | MIC ([6]; DSM 346): 66.6 µg/mL (≈ 137 µM) | MIC [7]: n.i. (No inhibition up to 67 µg/mL) | MIC [8]: n.i. (No inhibition up to 67 µg/mL) | MIC [9]: n.i. (No inhibition up to 67 µg/mL) | MIC [10]: n.i. (No inhibition up to 67 µg/mL) | MIC [11]: n.i. (No inhibition up to 67 µg/mL) | IC50 [12]: 13.3 µM | IC50 [13]: > 36.5 µM | IC50 [14]: > 36.5 µM | total mortality (TM) in the last two days ([15]; 7-day period): 67% | average total mortality (TM) over the first five days [15]: 33%

Beauveriolide III [reference compound]
antiatherogenic effects in macrophages (macrophages): potent antiatherogenic effects | adverse outcomes in animal studies [4]: without adverse outcomes

Beauveriolide Q [Compound 1]
solubility in deuterated solvents [16]: poor solubility | IC50 (Mouse fibroblast (L929)): > 36.5 µM | MIC [5, 22]: n.i. (No inhibition up to 67 µg/mL) | MIC [6, 22]: n.i. (No inhibition up to 67 µg/mL) | MIC [17]: n.i. (No inhibition up to 67 µg/mL) | MIC [7]: n.i. (No inhibition up to 67 µg/mL) | MIC [18]: n.i. (No inhibition up to 67 µg/mL) | MIC [8]: n.i. (No inhibition up to 67 µg/mL) | MIC [9]: n.i. (No inhibition up to 67 µg/mL) | MIC [19]: n.i. (No inhibition up to 67 µg/mL) | MIC [10]: n.i. (No inhibition up to 67 µg/mL) | MIC [11]: n.i. (No inhibition up to 67 µg/mL) | MIC [20]: n.i. (No inhibition up to 67 µg/mL) | MIC [21]: n.i. (No inhibition up to 67 µg/mL) | IC50 [12, 23]: > 36.5 µM

Beauveriolide R [Compound 2]
solubility in deuterated solvents [16]: soluble | IC50 (Mouse fibroblast (L929)): > 36.5 µM | MIC [5, 22]: n.i. (No inhibition up to 67 µg/mL) | MIC [6, 22]: n.i. (No inhibition up to 67 µg/mL) | MIC [17]: n.i. (No inhibition up to 67 µg/mL) | MIC [7]: n.i. (No inhibition up to 67 µg/mL) | MIC [18]: n.i. (No inhibition up to 67 µg/mL) | MIC [8]: n.i. (No inhibition up to 67 µg/mL) | MIC [9]: n.i. (No inhibition up to 67 µg/mL) | MIC [19]: n.i. (No inhibition up to 67 µg/mL) | MIC [10]: n.i. (No inhibition up to 67 µg/mL) | MIC [11]: n.i. (No inhibition up to 67 µg/mL) | MIC [20]: n.i. (No inhibition up to 67 µg/mL) | MIC [21]: n.i. (No inhibition up to 67 µg/mL) | IC50 [12, 23]: > 36.5 µM
